Assay results: PMC9586930, “Molecular insights into the distinct signaling duration for the peptide-induced PTH1R activation” (Nature Communications, 2022)
Non-standard residues stand in square brackets, D forms with d. Residues, ends and D or L forms follow the SMILES beside them. No end group written: not given here. Aib = CC(C)(N)C(=O)O

Biological target: T1, WT PTH1R (Homo sapiens, UniProt Q03431)
T1 construct: a flag-tag was fused to the N terminal of full-length PTH1R (WT or mutant); expressed in transfected cells; host or cells: HEK293T
T1 sequence (Q03431 27-593): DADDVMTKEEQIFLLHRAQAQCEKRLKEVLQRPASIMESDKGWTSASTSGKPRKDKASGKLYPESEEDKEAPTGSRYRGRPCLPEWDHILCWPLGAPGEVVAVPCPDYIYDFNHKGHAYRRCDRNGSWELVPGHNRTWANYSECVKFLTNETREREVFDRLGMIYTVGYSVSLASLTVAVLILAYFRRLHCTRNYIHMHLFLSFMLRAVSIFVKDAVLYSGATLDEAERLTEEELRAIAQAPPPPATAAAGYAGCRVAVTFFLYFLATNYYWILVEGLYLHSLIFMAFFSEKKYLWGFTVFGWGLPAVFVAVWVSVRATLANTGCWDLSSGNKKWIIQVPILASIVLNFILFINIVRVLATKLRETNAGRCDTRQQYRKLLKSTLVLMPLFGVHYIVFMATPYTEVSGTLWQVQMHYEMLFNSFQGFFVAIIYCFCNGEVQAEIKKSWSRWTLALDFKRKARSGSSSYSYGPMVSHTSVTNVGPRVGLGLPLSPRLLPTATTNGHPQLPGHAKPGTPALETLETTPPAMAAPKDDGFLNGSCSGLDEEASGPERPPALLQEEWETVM
Assay: cAMP accumulation assay (GloSensor), wild-type PTH1R
Type: cell-based
Settings: HEK293T cells; for Emax: from curve fitting dose-response data; for EC50: half-maximal stimulatory concentration from curve fitting dose-response data
Experimental: Human embryonic kidney 293 T (HEK293T, ATCC: CRL-1573) cells were transfected with a plasmid mixture consisting of pcDNA3.1-flag-PTH1R (WT or mutants) and the cAMP biosensor GloSensor-22F (Promega) at a ratio of 2:1 (see Supplementary Table 7 for a list of primers used in this study). After 24 h, transfected cells were plated onto a 384-well plate, which was treated with cell adherent reagent (Applygen) in advance. After another 12 h, cells were treated with Hank’s balanced salt solution for starvation and then incubated in CO2-independent media containing 4% GloSensor cAMP Reagent (Promega) at a volume of 5 μl per well and incubated for 20 min at RT before measurements for baseline luminescence (Spark Multimode microplate reader, TECAN). Next, test ligands were added at different concentrations from 10^−6 to 10^−13 M before second measurement. Finally, data were normalized to 100% of the maximal PTH (1-34) response for WT PTH1R using a sigmoidal dose-response in GraphPad Prism.
Statistical analyses were performed on at least three individual datasets and analysed using GraphPad Prism software. Bars represent differences in the calculated agonist potency (pEC50) and maximum agonist response (Emax) for each mutant relative to the WT receptor. Data are mean± s.e.m. from at least three independent experiments, performed in triplicates. ns, not significant, ^nsP > 0.01; ^*P < 0.01; ^**P < 0.001; ^***P < 0.0001 (one-way analysis of variance (ANOVA) followed by Dunnett’s test, compared with the response of the WT). For dose-response experiments, data were normalized and analyzed using nonlinear curve fitting for the log (agonist) versus response (three parameters) curves.

**Q.** `CC[C@H](C)[C@H](NC(=O)[C@H](CO)NC(=O)[C@H](CCCCN)NC(=O)CNC(=O)[C@H](CCCCN)NC(=O)[C@H](CC(=O)O)NC(=O)[C@H](Cc1c[nH]cn1)NC(=O)[C@H](CC(C)C)NC(=O)[C@H](CC(C)C)NC(=O)[C@H](CCC(N)=O)NC(=O)[C@@H](NC(=O)[C@H](CCC(=O)O)NC(=O)[C@H](CO)NC(=O)[C@@H](NC(=O)[C@H](C)N)C(C)C)[C@@H](C)CC)C(=O)N[C@@H](CCC(N)=O)C(=O)N[C@@H](CC(=O)O)C(=O)N[C@@H](CC(C)C)C(=O)N[C@@H](CCCNC(=N)N)C(=O)N[C@@H](CCCNC(=N)N)C(=O)N[C@@H](CCCNC(=N)N)C(=O)N[C@@H](CCC(=O)O)C(=O)N[C@@H](CC(C)C)C(=O)N[C@@H](CC(C)C)C(=O)N[C@@H](CCC(=O)O)C(=O)N[C@@H](CCCCN)C(=O)N[C@@H](CC(C)C)C(=O)N[C@@H](CC(C)C)C(=O)NC(C)(C)C(=O)N[C@@H](CCCCN)C(=O)N[C@@H](CC(C)C)C(=O)N[C@@H](Cc1c[nH]cn1)C(=O)N[C@H](C(=O)N[C@@H](C)C(N)=O)[C@@H](C)O` [ABL(H5I)] (H-AVSEIQLLHDKGKSIQDLRRRELLEKLL[Aib]KLHTA-NH2) was tested. Which Emax did it give?
**A.** 104.1 luminescence counts per 500ms

**Q.** What about the EC50 of the same molecule?
**A.** 0.32 nM

**Q.** With `CSCC[C@H](NC(=O)[C@H](CC(C)C)NC(=O)[C@H](CCC(N)=O)NC(=O)[C@H](Cc1c[nH]cn1)NC(=O)[C@H](CCC(=O)O)NC(=O)[C@H](CO)NC(=O)[C@@H](NC(=O)[C@@H](N)CO)C(C)C)C(=O)N[C@@H](Cc1c[nH]cn1)C(=O)N[C@@H](CC(N)=O)C(=O)N[C@@H](CC(C)C)C(=O)NCC(=O)N[C@@H](CCCCN)C(=O)N[C@@H](Cc1c[nH]cn1)C(=O)N[C@@H](CC(C)C)C(=O)N[C@@H](CC(N)=O)C(=O)N[C@@H](CO)C(=O)N[C@@H](CCSC)C(=O)N[C@@H](CCC(=O)O)C(=O)N[C@@H](CCCNC(=N)N)C(=O)N[C@H](C(=O)N[C@@H](CCC(=O)O)C(=O)N[C@@H](Cc1c[nH]c2ccccc12)C(=O)N[C@@H](CC(C)C)C(=O)N[C@@H](CCCNC(=N)N)C(=O)N[C@@H](CCCCN)C(=O)N[C@@H](CCCCN)C(=O)N[C@@H](CC(C)C)C(=O)N[C@@H](CCC(N)=O)C(=O)N[C@@H](CC(=O)O)C(=O)N[C@H](C(=O)N[C@@H](Cc1c[nH]cn1)C(=O)N[C@@H](CC(N)=O)C(=O)N[C@@H](Cc1ccccc1)C(=O)O)C(C)C)C(C)C` [PTH(I5H)] as the molecule, how does the EC50 read?
**A.** 23.6 nM

**Q.** “AVAEHQLMHNRAKWIQDARRRAFLHKLIAEIHTAEI [LAPTH(I5H;Q10N)]” was tested. Which Emax did it give?
**A.** 117.7 luminescence counts per 500ms

**Q.** What about the EC50 of the same molecule?
**A.** 1.4 nM

**Q.** “AVAEHQLMHQLAKWIQDARRRAFLHKLIAEIHTAEI [LAPTH(I5H;R11L)]” was tested. Which Emax did it give?
**A.** 106.9 luminescence counts per 500ms

**Q.** What about the EC50 of the same molecule?
**A.** 2.08 nM

**Q.** What does the source list for “AVAEHQLMHQRAKHIQDARRRAFLHKLIAEIHTAEI [LAPTH(I5H;W14H)]”?
**A.** Emax: 117.8 luminescence counts per 500ms; EC50: 0.493 nM

**Q.** How did the EC50 turn out when “AVAEHQLMHQRAKWIQDARRRAFLHKLIAEIHTAEI [LAPTH(I5H)]” was run?
**A.** 0.183 nM

**Q.** What does the source list for “AVAEHQLMHQRAKWIQDLRRRFFLHHLIAEIHTAEI-NH2 [LAPTH(1-14,I5H)/PTHrP(15-34)]”?
**A.** Emax: 142.8 luminescence counts per 500ms; EC50: 1.76 nM

**Q.** What does the source list for “AVAEHQLMHQRAKWLNSMERVEWLRKKLQDVHNF [LAPTH(1-14,I5H)/PTH(15-34)]”?
**A.** Emax: 129.6 luminescence counts per 500ms; EC50: 0.643 nM

**Q.** What does the source list for “AVAEHQLMHQRGKWIQDARRRAFLHKLIAEIHTAEI [LAPTH(I5H;A12G)]”?
**A.** Emax: 129.5 luminescence counts per 500ms; EC50: 2.08 nM

**Q.** How did the EC50 turn out when “AVAEIQLLHQRAKWIQDARRRAFLHKLIAEIHTAEI [LAPTH(M8L)]” was run?
**A.** 3.45 nM

**Q.** With “AVAEIQLLMHQRAKSIQDARRRAFLHKLIAEIHTAEI [LAPTH(W14H)]” as the molecule, how does the Emax read?
**A.** 107.5 luminescence counts per 500ms

**Q.** For “AVSEHQLMHQRAKWIQDARRRAFLHKLIAEIHTAEI [LAPTH(I5H;A3S)]”, which Emax is on record?
**A.** 125.3 luminescence counts per 500ms

**Q.** And the EC50?
**A.** 0.39 nM

**Q.** For “SVAEHQLMHQRAKWIQDARRRAFLHKLIAEIHTAEI [LAPTH(I5H;A1S)]”, which Emax is on record?
**A.** 119.8 luminescence counts per 500ms

**Q.** What about the EC50 of the same molecule?
**A.** 1.84 nM

**Q.** What does the source list for “SVSEHQLMHNLGKHIQDARRRAFLHKLIAEIHTAEI [LA-PTH (I5H-PTH;NT)]”?
**A.** Emax: 102.1 luminescence counts per 500ms; EC50: 1.98 nM
